# Laboratory results as given in the supplement of paper PMC11208160.
# Assay: recombinant UMI read abundance after kanamycin selection (control-corrected) (log10(CPM+1)); higher = more efficient recombination; extreme values may be limits of the assay; sequences stand for … in AGTGCAGAGAAAATCGGCCAGTTTTCTCTGCCTGCAGTCCGCATGCCGTGGGACCCCTTGGGTTCTAACCTGTTGCCTAGATTTATGCAGCGGACTGCCTTTCTCCCAAAGTGATAAACCGG…AGGTTGGTTTCACT; site = the 11-nt donor
# Outline: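 For the IS621 bridge recombinase, a pooled Escherichia coli screen tested donor and donor-binding-loop pairs. Cells received the pair library together with a target plasmid encoding a fixed target and T7-inducible recombinase, then went onto IPTG (0.07 mM) plus kanamycin or unselected plates in duplicate. After PCR across the donor–target junction and sequencing, recombinant UMI counts were normalized to CPM, averaged, and scaled by control-derived factors. Each value is given as log10(CPM+1).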
row,Sequence,recombinant UMI read abundance (log10)
1,TCAGAGACATGGACCGGTTTTCCCGGTAATCCGTATTTGCT (site TCAGAGACTGG),2.21
2,TCAGAGACATGGACCGGTTTTCCCGGTAATCCGTATTTGCT (site TCAGAGACTTG),0.868
3,TCAGAGACATGGACCGGTTTTCCCGGTAATCCGTATTTGGG (site TCAGAGACTCA),0.0103
4,TCAGAGACATGGACCGGTTTTCCCGGTAATCCGTATTTGGG (site TCAGAGACTCC),0
5,TCAGAGACATGGACCGGTTTTCCCGGTAATCCGTATTTGGG (site TCAGAGACTCG),0
6,TCAGAGACATGGACCGGTTTTCCCGGTAATCCGTATTTGGG (site TCAGAGACTCT),0.0246
7,TCAGATTCATGGACCGGTTTTCCCGGTAATCCGTATTTGGA (site TCAGATTCTTC),1.34
8,TCAGGGACATGGACCGGTTTTCCCGGTAATCCGTATTTGGG (site TCAGGGACTCC),0.00795
9,TCAGGTTCATGGACCGGTTTTCCCGGTAATCCGTATTTGCT (site TCAGGTTCTAG),1.27
10,TCAGTAGCATGGACCGGTTTTCCCGGTAATCCGTATTTGCA (site ACAGTATCTTG),2.25
11,TCAGTAGCATGGACCGGTTTTCCCGGTAATCCGTATTTGCA (site TCAGTAGCTTG),1.9
12,TCAGTCTCATGGACCGGTTTTCCCGGTAATCCGTATTTGAT (site TCAGTCTCTAT),2.42
13,TCAGTGCCATGGACCGGTTTTCCCGGTAATCCGTATTTGCG (site TCAGTGCCTCG),0.0165
14,TCATACCCATGGACCGGTTTTCCCGGTAATCCGTATTTGCA (site TCATACACTTG),0
15,TCATACCCATGGACCGGTTTTCCCGGTAATCCGTATTTGCA (site TCATACCCTTG),0.0304
16,TCATACCCATGGACCGGTTTTCCCGGTAATCCGTATTTGCA (site TCATACGCTTG),0
17,TCATACCCATGGACCGGTTTTCCCGGTAATCCGTATTTGCA (site TCATACTCTTG),0.995
18,TCATACGCATGGACCGGTTTTCCCGGTAATCCGTATTTGCA (site TCATACACTTG),1.03
19,TCATACGCATGGACCGGTTTTCCCGGTAATCCGTATTTGCA (site TCATACCCTTG),0.169

row,Sequence,recombinant UMI read abundance (log10)
1,TCATACGCATGGACCGGTTTTCCCGGTAATCCGTATTTGCA (site TCATACGCTTG),2.25
2,TCATACGCATGGACCGGTTTTCCCGGTAATCCGTATTTGCA (site TCATACTCTTG),0.604
3,TCATACTCATGGACCGGTTTTCCCGGTAATCCGTATTTGCA (site ACATACTCTTG),1.34
4,TCATACTCATGGACCGGTTTTCCCGGTAATCCGTATTTGCA (site CCATACTCTTG),2.03
5,TCATACTCATGGACCGGTTTTCCCGGTAATCCGTATTTGCA (site GCATACTCTTG),1.3
6,TCATACTCATGGACCGGTTTTCCCGGTAATCCGTATTTGCA (site TAATACTCTTG),1.45
7,TCATACTCATGGACCGGTTTTCCCGGTAATCCGTATTTGCA (site TCAAACTCTTG),1.19
8,TCATACTCATGGACCGGTTTTCCCGGTAATCCGTATTTGCA (site TCACACTCTTG),1.3
9,TCATACTCATGGACCGGTTTTCCCGGTAATCCGTATTTGCA (site TCAGACTCTTG),0
10,TCATACTCATGGACCGGTTTTCCCGGTAATCCGTATTTGCA (site TCATAATCTTG),0.464
11,TCATACTCATGGACCGGTTTTCCCGGTAATCCGTATTTGCA (site TCATACACTTG),0.64
12,TCATACTCATGGACCGGTTTTCCCGGTAATCCGTATTTGCA (site TCATACCCTTG),0.303
13,TCATACTCATGGACCGGTTTTCCCGGTAATCCGTATTTGCA (site TCATACGCTTG),0.00277
14,TCATACTCATGGACCGGTTTTCCCGGTAATCCGTATTTGCA (site TCATACTCTAG),0
15,TCATACTCATGGACCGGTTTTCCCGGTAATCCGTATTTGCA (site TCATACTCTCG),0.514
16,TCATACTCATGGACCGGTTTTCCCGGTAATCCGTATTTGCA (site TCATACTCTGG),0
17,TCATACTCATGGACCGGTTTTCCCGGTAATCCGTATTTGCA (site TCATACTCTTA),0
18,TCATACTCATGGACCGGTTTTCCCGGTAATCCGTATTTGCA (site TCATACTCTTC),0.0158
19,TCATACTCATGGACCGGTTTTCCCGGTAATCCGTATTTGCA (site TCATACTCTTG),2.69

row,Sequence,recombinant UMI read abundance (log10)
1,TCATACTCATGGACCGGTTTTCCCGGTAATCCGTATTTGCA (site TCATACTCTTT),0.0879
2,TCATACTCATGGACCGGTTTTCCCGGTAATCCGTATTTGCA (site TCATAGTCTTG),1.54
3,TCATACTCATGGACCGGTTTTCCCGGTAATCCGTATTTGCA (site TCATATTCTTG),0
4,TCATACTCATGGACCGGTTTTCCCGGTAATCCGTATTTGCA (site TCATCCTCTTG),0.111
5,TCATACTCATGGACCGGTTTTCCCGGTAATCCGTATTTGCA (site TCATGCTCTTG),0
6,TCATACTCATGGACCGGTTTTCCCGGTAATCCGTATTTGCA (site TCATTCTCTTG),0
7,TCATACTCATGGACCGGTTTTCCCGGTAATCCGTATTTGCA (site TCCTACTCTTG),1.79
8,TCATACTCATGGACCGGTTTTCCCGGTAATCCGTATTTGCA (site TCGTACTCTTG),2.35
9,TCATACTCATGGACCGGTTTTCCCGGTAATCCGTATTTGCA (site TCTTACTCTTG),2.13
10,TCATACTCATGGACCGGTTTTCCCGGTAATCCGTATTTGCA (site TGATACTCTTG),1.78
11,TCATACTCATGGACCGGTTTTCCCGGTAATCCGTATTTGCA (site TTATACTCTTG),1.2
12,TCATACTCATGGACCGGTTTTCCCGGTAATCCGTATTTGCC (site TCATACTCTAG),1.07
13,TCATACTCATGGACCGGTTTTCCCGGTAATCCGTATTTGCC (site TCATACTCTCG),0
14,TCATACTCATGGACCGGTTTTCCCGGTAATCCGTATTTGCC (site TCATACTCTGG),2.23
15,TCATACTCATGGACCGGTTTTCCCGGTAATCCGTATTTGCC (site TCATACTCTTG),0
16,TCATACTCATGGACCGGTTTTCCCGGTAATCCGTATTTGCT (site TCATACTCTAG),2.47
17,TCATACTCATGGACCGGTTTTCCCGGTAATCCGTATTTGCT (site TCATACTCTCG),0
18,TCATACTCATGGACCGGTTTTCCCGGTAATCCGTATTTGCT (site TCATACTCTGG),0
19,TCATACTCATGGACCGGTTTTCCCGGTAATCCGTATTTGCT (site TCATACTCTTG),0
